Reference: PubChem BioAssay (NCI)
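Cultured in 96-well plates, cells were exposed to test compound for 48 hours across five concentrations. GI50 marks 50% less growth. TGI marks complete inhibition of growth.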

Experiments:
Test in all cases: NCI anticancer screen, dose series, 48 h
786-0 renal = system: 786-0 renal
KM12 colon = system: KM12 colon
SF-295 CNS = system: SF-295 CNS
MCF7 breast = system: MCF7 breast
RPMI-8226 leukemia = system: RPMI-8226 leukemia
NCI-H460 lung = system: NCI-H460 lung
DU-145 prostate = system: DU-145 prostate
COLO 205 colon = system: COLO 205 colon
SF-539 CNS = system: SF-539 CNS
HOP-62 NSCLC = system: HOP-62 NSCLC
OVCAR-4 ovarian = system: OVCAR-4 ovarian
SN12C renal = system: SN12C renal
NCI-H23 lung = system: NCI-H23 lung
OVCAR-3 ovarian = system: OVCAR-3 ovarian
OVCAR-8 ovarian = system: OVCAR-8 ovarian
SNB-75 CNS = system: SNB-75 CNS
K-562 leukemia = system: K-562 leukemia
M14 melanoma = system: M14 melanoma
MDA-MB-231 breast = system: MDA-MB-231 breast
OVCAR-5 ovarian = system: OVCAR-5 ovarian
HL-60(TB) leukemia = system: HL-60(TB) leukemia
CCRF-CEM leukemia = system: CCRF-CEM leukemia
HT29 colon = system: HT29 colon
LOX IMVI melanoma = system: LOX IMVI melanoma
HS 578T breast = system: HS 578T breast
NCI-H226 lung = system: NCI-H226 lung
NCI/ADR-RES ovarian = system: NCI/ADR-RES ovarian
TK-10 renal = system: TK-10 renal
NCI-H522 lung = system: NCI-H522 lung
HCC-2998 colon = system: HCC-2998 colon
HCT-15 colon = system: HCT-15 colon
SK-MEL-5 melanoma = system: SK-MEL-5 melanoma
SF-268 CNS = system: SF-268 CNS
SK-MEL-2 melanoma = system: SK-MEL-2 melanoma
UACC-257 melanoma = system: UACC-257 melanoma
SNB-19 CNS = system: SNB-19 CNS
SK-OV-3 ovarian = system: SK-OV-3 ovarian
BT-549 breast = system: BT-549 breast
HCT-116 colon = system: HCT-116 colon
UACC-62 melanoma = system: UACC-62 melanoma
PC-3 prostate = system: PC-3 prostate
SW-620 colon = system: SW-620 colon
MOLT-4 leukemia = system: MOLT-4 leukemia
U251 CNS = system: U251 CNS
HOP-92 NSCLC = system: HOP-92 NSCLC
A498 renal = system: A498 renal
UO-31 renal = system: UO-31 renal
IGROV1 ovarian = system: IGROV1 ovarian
EKVX NSCLC = system: EKVX NSCLC
SK-MEL-28 melanoma = system: SK-MEL-28 melanoma
MDA-MB-435 = system: MDA-MB-435
T-47D breast = system: T-47D breast
A549 NSCLC = system: A549 NSCLC
ACHN renal = system: ACHN renal
RXF 393 renal = system: RXF 393 renal
MALME-3M melanoma = system: MALME-3M melanoma
SR leukemia = system: SR leukemia

Compound `COc1ccc(/C=N/C2=NNC(C)(c3ccccc3O)N2C(Cc2c[nH]c3ccccc23)C(=O)O)cc1` (centres undefined) has a GI50 (786-0 renal) of 3.36 µM, a TGI (786-0 renal) of 13 µM and a GI50 (KM12 colon) of 2.6 µM. The TGI (KM12 colon) was 10.2 µM, the GI50 (SF-295 CNS) was 2.12 µM and the TGI (SF-295 CNS) was 7.35 µM. The GI50 (MCF7 breast) was 2.23 µM, the TGI (MCF7 breast) was 10.9 µM and the GI50 (RPMI-8226 leukemia) was 2.14 µM. For the same compound, the TGI (RPMI-8226 leukemia) was 7.65 µM, the GI50 (NCI-H460 lung) was 2.55 µM and the TGI (NCI-H460 lung) was 8.51 µM. For the same compound, the GI50 (DU-145 prostate) was 4.13 µM, the TGI (DU-145 prostate) was 17.8 µM and the GI50 (COLO 205 colon) was 1.86 µM. It also gave a TGI (COLO 205 colon) of 4.44 µM, a GI50 (SF-539 CNS) of 2.75 µM and a TGI (SF-539 CNS) of 10.3 µM. The GI50 (HOP-62 NSCLC) was 2.58 µM, the TGI (HOP-62 NSCLC) was 11.9 µM and the GI50 (OVCAR-4 ovarian) was 2.26 µM. It also gave a TGI (OVCAR-4 ovarian) of 15.1 µM, a GI50 (SN12C renal) of 3.11 µM and a TGI (SN12C renal) of 11.3 µM. The GI50 (NCI-H23 lung) was 2.28 µM, the TGI (NCI-H23 lung) was 8.61 µM and the GI50 (OVCAR-3 ovarian) was 3.05 µM. It also gave a TGI (OVCAR-3 ovarian) of 11.7 µM, a GI50 (OVCAR-8 ovarian) of 3.23 µM and a TGI (OVCAR-8 ovarian) of 16 µM. For the same compound, the GI50 (SNB-75 CNS) was 1.72 µM, the TGI (SNB-75 CNS) was 13.4 µM and the GI50 (K-562 leukemia) was 2.38 µM. For the same compound, the TGI (K-562 leukemia) was 11.6 µM, the GI50 (M14 melanoma) was 2.35 µM and the TGI (M14 melanoma) was 8.77 µM. For the same compound, the GI50 (MDA-MB-231 breast) was 1.89 µM, the TGI (MDA-MB-231 breast) was 8.89 µM and the GI50 (OVCAR-5 ovarian) was 3.06 µM. It also gave a TGI (OVCAR-5 ovarian) of 19 µM, a GI50 (HL-60(TB) leukemia) of 2.28 µM and a TGI (HL-60(TB) leukemia) of 8.9 µM. For the same compound, the GI50 (CCRF-CEM leukemia) was 3.04 µM, the TGI (CCRF-CEM leukemia) was 40.4 µM and the GI50 (HT29 colon) was 2.36 µM. It also gave a TGI (HT29 colon) of 9.51 µM, a GI50 (LOX IMVI melanoma) of 2.68 µM and a TGI (LOX IMVI melanoma) of 10.1 µM. The GI50 (HS 578T breast) was 2.83 µM, the TGI (HS 578T breast) was 21.7 µM and the GI50 (NCI-H226 lung) was 2.16 µM. It also gave a TGI (NCI-H226 lung) of 10.3 µM, a GI50 (NCI/ADR-RES ovarian) of 2.76 µM and a TGI (NCI/ADR-RES ovarian) of 14 µM. It also gave a GI50 (TK-10 renal) of 5.01 µM, a TGI (TK-10 renal) of 10.9 µM and a GI50 (NCI-H522 lung) of 2.49 µM. For the same compound, the TGI (NCI-H522 lung) was 10 µM, the GI50 (HCC-2998 colon) was 3.53 µM and the TGI (HCC-2998 colon) was 13.3 µM. It also gave a GI50 (HCT-15 colon) of 2.81 µM, a TGI (HCT-15 colon) of 11.8 µM and a GI50 (SK-MEL-5 melanoma) of 1.66 µM. For the same compound, the TGI (SK-MEL-5 melanoma) was 3.09 µM, the GI50 (SF-268 CNS) was 3.11 µM and the TGI (SF-268 CNS) was 13.8 µM. For the same compound, the GI50 (SK-MEL-2 melanoma) was 2.27 µM, the TGI (SK-MEL-2 melanoma) was 5.81 µM and the GI50 (UACC-257 melanoma) was 3.53 µM. The TGI (UACC-257 melanoma) was 10.8 µM, the GI50 (SNB-19 CNS) was 3.76 µM and the TGI (SNB-19 CNS) was 14.6 µM. For the same compound, the GI50 (SK-OV-3 ovarian) was 2.85 µM, the TGI (SK-OV-3 ovarian) was 14.5 µM and the GI50 (BT-549 breast) was 2.24 µM. It also gave a TGI (BT-549 breast) of 7.62 µM, a GI50 (HCT-116 colon) of 2.52 µM and a TGI (HCT-116 colon) of 10.2 µM. For the same compound, the GI50 (UACC-62 melanoma) was 1.86 µM, the TGI (UACC-62 melanoma) was 5.53 µM and the GI50 (PC-3 prostate) was 2.68 µM. The TGI (PC-3 prostate) was 11.6 µM, the GI50 (SW-620 colon) was 3.17 µM and the TGI (SW-620 colon) was 12.1 µM. It also gave a GI50 (MOLT-4 leukemia) of 3 µM, a TGI (MOLT-4 leukemia) of 13.9 µM and a GI50 (U251 CNS) of 3.44 µM. It also gave a TGI (U251 CNS) of 11.6 µM, a GI50 (HOP-92 NSCLC) of 1.31 µM and a TGI (HOP-92 NSCLC) of 5.17 µM. The GI50 (A498 renal) was 3.1 µM, the TGI (A498 renal) was 9.03 µM and the GI50 (UO-31 renal) was 1.62 µM. It also gave a TGI (UO-31 renal) of 11.2 µM, a GI50 (IGROV1 ovarian) of 1.72 µM and a TGI (IGROV1 ovarian) of 9.5 µM. It also gave a GI50 (EKVX NSCLC) of 1.96 µM, a TGI (EKVX NSCLC) of 10.8 µM and a GI50 (SK-MEL-28 melanoma) of 2.67 µM. For the same compound, the TGI (SK-MEL-28 melanoma) was 8.41 µM, the GI50 (MDA-MB-435) was 1.7 µM and the TGI (MDA-MB-435) was 5.68 µM. The GI50 (T-47D breast) was 1.55 µM, the TGI (T-47D breast) was 12.2 µM and the GI50 (A549 NSCLC) was 4.44 µM. The TGI (A549 NSCLC) was 30.5 µM, the GI50 (ACHN renal) was 3.02 µM and the TGI (ACHN renal) was 14.7 µM. It also gave a GI50 (RXF 393 renal) of 1.27 µM, a TGI (RXF 393 renal) of 6.26 µM and a GI50 (MALME-3M melanoma) of 1.9 µM. The TGI (MALME-3M melanoma) was 6.49 µM, the GI50 (SR leukemia) was 2.76 µM and the TGI (SR leukemia) was 12.4 µM.
